Assays:
[1] = tested on: VIOAR; assay: Greenhouse trial, pre-emergence (PE) soil application, action against weeds; format: in vivo, Viola arvensis; details: g of AS/ha: (A) 90, (B) 300, (C) mefenpyr 300, about 3 weeks after application
Method: (§1) In the standard design of the test, seeds of various broad-leaved weed and weed grass biotypes (origins) were sown in a 8-13 cm diameter pot filled with natural soil of a standard field soil (loamy silt; non-sterile) and covered with a covering soil layer of about 1 cm. The pots were then cultivated in a greenhouse (12-16 h of light, temperature day 20-22° C., night 15-18° C.) until the time of application. The pots were treated on a laboratory track sprayer with spray liquors comprising the compositions according to the invention, mixtures of the prior art or components used individually. Application of the active compounds or active compound combinations formulated as WG, WP, EC or otherwise was carried out at the appropriate growth stages of the plants. The application rate for the spray application was 100-600 l of water/ha. After the treatment, the plants were returned to the greenhouses.
(§2) About 3 weeks after the application, the soil action or/and foliar action was assessed visually according to a scale of 0-100% in comparison to an untreated comparative group: 0%=no noticeable effect compared to the untreated comparative group; 100%=full effect compared to the untreated comparative group. […]

[2] = tested on: TRZAW; assay: Greenhouse trial, selective pre-emergence action (PE application), crop plant; format: in vivo, Triticum aestivum, winter wheat; details: g of AS/ha: (A) 90, (B) 300, (C) mefenpyr 300
Method: as §1, §2

[3] = tested on: TRZAS; assay: as above; format: in vivo, Triticum aestivum, summer wheat
Method: as §1
(§3) About 3 weeks after the application, the soil action or/and foliar action was assessed visually according to a scale of 0-100% in comparison to an untreated comparative group: 0%=no noticeable effect compared to the untreated comparative group; 100%=full effect compared to the untreated comparative group.
(§4) (notes: the term “seeds” also includes vegetative propagation forms such as, for example, rhizome pieces; abbreviations used: h light=hours of illumination, g of AS/ha=gram of active substance per hectare, l/ha=liter per hectare, S=sensitive, R=resistant) • 1. Pre-emergence action against weeds: seeds of various broad-leaved weed and weed grass biotypes (origins) were sown in a 8-13 cm diameter pot filled with natural soil of a standard field soil (loamy silt; non-sterile) and covered with a covering soil layer of about 1 cm. The pots were then cultivated in a greenhouse (12-16 h of light, temperature day 20-22° C., night 15-18° C.) until the time of application. The pots were treated at the BBCH stage 00-10 of the seeds/plants on a laboratory track sprayer with spray liquors comprising the compositions according to the invention, mixtures or components used individually, as WG, WP, EC or other formulations. The application rate for the spray application was 100-600 l of water/ha. After the treatment, the plants were returned to the greenhouses and, when required, treated with fertilizer and watered. • 2. Post-emergence action against weeds: seeds of various broad-leaved weed and weed grass biotypes (origins) were sown in a 8-13 cm diameter pot filled with natural soil of a standard field soil (loamy silt; non-sterile) and covered with a covering soil layer of about 1 cm. The pots were then cultivated in a greenhouse (12-16 h of light, temperature day 20-22° C., night 15-18° C.) until the time of application. […]

[4] = tested on: HORVW; assay: as above; format: in vivo, Hordeum vulgare, winter barley; details: g of AS/ha: (A) 90, (B) 300, (C) mefenpyr 300
Method: as §1, §2

[5] = tested on: VIOAR; assay: Greenhouse trial, incorporation of active compound into the soil covering layer, action against weeds; format: in vivo, Viola arvensis; details: g of AS/ha: (A) 90, (B) 300, (C) mefenpyr 300
Method: as §1, §2

[6] = tested on: TRZAW; assay: Greenhouse trial, incorporation of active compound into the soil covering layer, crop plant; format: in vivo, Triticum aestivum, winter wheat; details: g of AS/ha: (A) 90, (B) 300, (C) mefenpyr 300
Method: as §1, §2

[7] = tested on: TRZAS; assay: as above; format: in vivo, Triticum aestivum, summer wheat; details: g of AS/ha: (A) 90, (B) 300, (C) mefenpyr 300
Method: as §1, §2

[8] = tested on: HORVW; assay: as above; format: in vivo, Hordeum vulgare, winter barley; details: g of AS/ha: (A) 90, (B) 300, (C) mefenpyr 300
Method: as §1, §2

[9] = tested on: ALOMY; assay: Greenhouse trial, post-emergence (PO) action against weeds; format: in vivo, Alopecurus myosuroides; details: PO application; g of AS/ha: (A) 120, (B) 600
Method: as §1, §2

[10] = tested on: POAAN; assay: as above; format: in vivo, Poa annua; details: PO application; g of AS/ha: (A) 120, (B) 600
Method: as §1, §2

[11] = tested on: AVEFA; assay: as above; format: in vivo, Avena fatua; details: PO application; g of AS/ha: (A) 120, (B) 600
Method: as §1, §2

[12] = tested on: HORVS; assay: Greenhouse trial, selective post-emergence (PO) action, crop plant; format: in vivo, Hordeum vulgare, summer barley; details: PO application, g of AS/ha: (A) 120, (B) 600
Method: as §1, §2

[13] = tested on: STEME; assay: Greenhouse trial, PE application (comparison with pre-sowing method), weeds; format: in vivo, Stellaria media; details: g of AS/ha: (A) 90, (B) 300
Method: as §1, §2

[14] = tested on: AVEFA; assay: as above; format: in vivo, Avena fatua; details: g of AS/ha: (A) 90, (B) 300
Method: as §1, §2

[15] = tested on: STEME; assay: Greenhouse trial, pre-sowing application 7 days prior to sowing, weeds; format: in vivo, Stellaria media; details: g of AS/ha: (A) 90, (B) 300
Method: as §1, §2

[16] = tested on: AVEFA; assay: as above; format: in vivo, Avena fatua; details: g of AS/ha: (A) 90, (B) 300
Method: as §1, §2

[17] = tested on: TRZAS; assay: Greenhouse trial, pre-sowing application 7 days prior to sowing, crop plant; format: in vivo, Triticum aestivum, summer wheat; details: g of AS/ha: (A) 90, (B) 300
Method: as §1, §2

[18] = tested on: LOLPE; assay: Greenhouse trial, PE application with different soil types; format: in vivo, Lolium perenne; details: g of AS/ha: (A) 90, (B) 300
Method: as §1, §3, §4

[19] = tested on: STEME; assay: Greenhouse trial, PE application on sensitive and resistant biotypes; format: in vivo, Stellaria media; details: g of AS/ha: (A) 120, (B) 600, iodosulfuron 10; for STEME resistant activity (visual, scale 0-100%): resistant biotype; for STEME sensitive activity (visual, scale 0-100%): sensitive biotype
Method: as §1, §3
(§5) (notes: the term “seeds” also includes vegetative propagation forms such as, for example, rhizome pieces; abbreviations used: h light=hours of illumination, g of AS/ha=gram of active substance per hectare, l/ha=liter per hectare, S=sensitive, R=resistant) • 1. Pre-emergence action against weeds: seeds of various broad-leaved weed and weed grass biotypes (origins) were sown in a 8-13 cm diameter pot filled with natural soil of a standard field soil (loamy silt; non-sterile) and covered with a covering soil layer of about 1 cm. The pots were then cultivated in a greenhouse (12-16 h of light, temperature day 20-22° C., night 15-18° C.) until the time of application. The pots were treated at the BBCH stage 00-10 of the seeds/plants on a laboratory track sprayer with spray liquors comprising the compositions according to the invention, mixtures or components used individually, as WG, WP, EC or other formulations. The application rate for the spray application was 100-600 l of water/ha. After the treatment, the plants were returned to the greenhouses and, when required, treated with fertilizer and watered. • 2. Post-emergence action against weeds: seeds of various broad-leaved weed and weed grass biotypes (origins) were sown in a 8-13 cm diameter pot filled with natural soil of a standard field soil (loamy silt; non-sterile) and covered with a covering soil layer of about 1 cm. The pots were then cultivated in a greenhouse (12-16 h of light, temperature day 20-22° C., night 15-18° C.) until the time of application. The pots were treated at various BBCH stages between 11-25 of the seeds/plants, i.e. generally between two to three weeks after the start of the cultivation, on a laboratory track sprayer with spray liquors comprising the compositions according to the invention, mixtures or components used individually, as WG, WP, EC or other formulations. The application rate for the spray application was 100-600 l of water/ha. After the treatment, the plants were returned to the greenhouses and, when required, treated with fertilizer and watered. • 3. Pre-emergence action against weeds with and without incorporation of active compound: seeds of various broad-leaved weed and weed grass biotypes (origins) were sown in a 8-13 cm diameter pot filled with natural soil of a standard field soil (loamy silt; non-sterile). […]

[20] = tested on: MATCH; assay: as above; format: in vivo, Matricaria chamomilla; details: g of AS/ha: (A) 120, (B) 600, iodosulfuron 10; for MATCH resistant activity (visual, scale 0-100%): resistant biotype; for MATCH sensitive activity (visual, scale 0-100%): sensitive biotype
Method: as §1, §3, §5

[21] = g of AS/ha: (A) 90, (B) 300, (C) mefenpyr 300
[22] = g of AS/ha: (A) 90, (B) 300, Table 3

| Structure (SMILES) | VIOAR activity (visual, scale 0-100%) [1] | TRZAW activity (visual, scale 0-100%) [2] | TRZAS activity (visual, scale 0-100%) [3, 21] | TRZAS activity (visual, scale 0-100%) [3, 22] | HORVW activity (visual, scale 0-100%) [4] | VIOAR activity (visual, scale 0-100%) [5] | TRZAW activity (visual, scale 0-100%) [6] | TRZAS activity (visual, scale 0-100%) [7] | HORVW activity (visual, scale 0-100%) [8] | ALOMY activity (visual, scale 0-100%) [9] | POAAN activity (visual, scale 0-100%) [10] | AVEFA activity (visual, scale 0-100%) [11] | HORVS activity (visual, scale 0-100%) [12] | STEME activity (visual, scale 0-100%) [13] | AVEFA activity (visual, scale 0-100%) [14] | STEME activity (visual, scale 0-100%) [15] | STEME resistant activity (visual, scale 0-100%) [19] | STEME sensitive activity (visual, scale 0-100%) [19] | MATCH resistant activity (visual, scale 0-100%) [20] | MATCH sensitive activity (visual, scale 0-100%) [20] | other results |
| --- | --- | --- | --- | --- | --- | --- | --- | --- | --- | --- | --- | --- | --- | --- | --- | --- | --- | --- | --- | --- | --- |
| CC(C)N(C(=O)COc1nnc(C(F)(F)F)s1)c1ccc(F)cc1 [(A) flufenacet, N-(4-fluorophenyl)-N-(1-methylethyl)-2-[[5-(trifluoromethyl)-1,3,4-thiadiazol-2-yl]oxy]acetamide] | 0% | 30% | 20% | 20% | 20% | 0% | 60% | 50% | 60% | 65% | 60% | 70% | 40% | 0% | 80% | 35% | 0% | 0% | 50% | 50% | AVEFA activity (visual, scale 0-100%) [16]: 70%; TRZAS activity (visual, scale 0-100%) [17]: 50%; LOLPE IU soil activity (visual, scale 0-100%) [18]: 95%; LOLPE IU/EC73 soil activity (visual, scale 0-100%) [18]: 74% |
| CCCN(CCC)c1c([N+](=O)[O-])cc(C(F)(F)F)cc1[N+](=O)[O-] [(B) trifluralin, 2,6-dinitro-N,N-dipropyl-4-(trifluoromethyl)benzenamine] | 0% | 20% | 0% | 0% | 0% | 10% | 100% | 90% | 60% | 30% | 40% | 20% | 20% | 10% | 70% | 30% | 20% | 20% | 20% | 20% | AVEFA activity (visual, scale 0-100%) [16]: 60%; TRZAS activity (visual, scale 0-100%) [17]: 20%; LOLPE IU soil activity (visual, scale 0-100%) [18]: 55%; LOLPE IU/EC73 soil activity (visual, scale 0-100%) [18]: 0% |
| COc1nc(C)nc(NC(=O)NS(=O)(=O)c2cc(I)ccc2C(=O)O)n1 [(C) iodosulfuron] | – | – | – | – | – | – | – | – | – | – | – | – | – | – | – | – | 40% | 90% | 60% | 100% | – |

Source: patent publication US20110152085A1, “Herbicidal Compositions Comprising Flufenacet” (BAYER CROPSCIENCE AG, priority 2009, published 2011)
